SMILES strings stand for the structures. Counter-ions that a name gives are not always drawn.

The target of this assay is T1, BRD4 BD2 (Homo sapiens, UniProt O60885, Y97A).
T1 construct: BRD4 (1-477) (Y97A) and (Y390A); made in house; host or cells: E. coli (pET15b vector)
Nature of the assay: TR-FRET binding assay, BRD4 BD2 (BD1-mutated protein). The following applies: read-out: pIC50 in the BRD4 BD2 assay (converted). As for the experimental part: Time Resolved Fluorescence Resonance Energy Transfer (TR-FRET) Assay Binding was assessed using a time resolved fluorescent resonance energy transfer binding assay. This utilises a 6 His purification tag at the N-terminal of the proteins as an epitope for an anti-6 His antibody labeled with Europium chelate (PerkinElmer AD0111) allowing binding of the Europium to the proteins which acts as the donor fluorophore. A small molecule, high affinity binder of the bromodomains BRD2, BRD3, BRD4 and BRDT has been labeled with Alexa Fluor647 (Reference Compound X) and this acts as the acceptor in the FRET pair.
In the absence of a competing compound, excitation of the Europium causes the donor to emit at λ618 nm which excites the Alexa labelled bromodomain binding compound leading to an increased energy transfer that is measurable at λ647 nM. In the presence of a sufficient concentration of a compound that can bind these proteins, the interaction is disrupted leading to a quantifiable drop in fluorescent resonance energy transfer.
The binding of the compounds of formula (I) to Bromodomains BRD2, BRD3, BRD4 and BRDT was assessed using mutated proteins to detect differential binding to either Binding Domain 1 (BD1) or Binding Domain 2 (BD2) on the bromodomain. These single residue mutations in the acetyl lysine binding pocket greatly lower the affinity of the fluoroligand (Reference Compound X) for the mutated domain (>1000 fold selective for the non-mutated domain). Therefore in the final assay conditions, binding of the fluoroligand to the mutated domain cannot be detected and subsequently the assay is suitable to determine the binding of compounds to the single non-mutated bromodomain.
Recombinant Human Bromodomains [(BRD2 (1-473) (Y113A) and (Y386A), BRD3 (1-435) (Y73A) and (Y348A) BRD4 (1-477) (Y97A) and (Y390A) and BRDT (1-397) (Y66A) and (Y309A)] were expressed in E. coli cells (in pET15b vector for BRD2/3/4 and in pET28a vector for BRDT) with a 6-His tag at the N-terminal. The His-tagged Bromodomain pellet was resuspended in 50 mM HEPES (pH7.5), 300 mM NaCl, 10 mM imidazole & 1 μl/ml protease inhibitor cocktail and extracted from the E. coli cells using sonication and purified using a nickel sepharose high performance column, the proteins were washed and then eluted with a linear gradient of 0-500 mM imidazole with buffer 50 mM HEPES (pH7.5), 150 mM NaCl, 500 mM imidazole, over 20 column volumes. Final purification was completed by Superdex 200 prep grade size exclusion column. Purified protein was stored at −80° C. in 20 mM HEPES pH 7.5 and 100 mM NaCl. Protein identity was confirmed by peptide mass fingerprinting and predicted molecular weight confirmed by mass spectrometry.
All assay components were dissolved in buffer composition of 50 mM HEPES pH7.4, 50 mM NaCl, 5% Glycerol, 1 mM DTT and 1 mM CHAPS. The final concentration of bromodomain proteins were 10 nM and the Alexa Fluor647 ligand was at Kd. These components were premixed and 5 μl of this reaction mixture was added to all wells containing 50 nl of various concentrations of test compound or DMSO vehicle (0.5% DMSO final) in Greiner 384 well black low volume microtitre plates and incubated in dark for 30 minutes at rt. 5 μl of detection mixture containing 1.5 nM final concentration anti-6His Europium chelate was added to all wells and a further dark incubation of at least 30 minutes was performed. Plates were then read on the Envision platereader, (λex=317 nm, donor λem=615 nm; acceptor λem=665 nm; Dichroic LANCE dual). Time resolved fluorescent intensity measurements were made at both emission wavelengths and the ratio of acceptor/donor was calculated and used for data analysis. All data was normalized to the mean of 16 high (inhibitor control—Example 11 of WO 2011/054846A1) and 16 low (DMSO) control wells on each plate. A four parameter curve fit of the following form was then applied: y=a+((b−a)/(1+(10^/10^)^d) […]
In general terms: In TR-FRET formats the signal depends on donor and acceptor labels being close together.
For `CC(=O)N1c2ccc(F)cc2[C@H](Nc2ccc(C#N)cc2)[C@@H](C)[C@@H]1C1CC1` (racemic) [Example 161, rac-4-(((2S,3R,4R)-1-acetyl-2-cyclopropyl-6-fluoro-3-methyl-1,2,3,4-tetrahydroquinolin-4-yl)amino)benzonitrile], the IC50 was 100 nM. As for `CC(=O)N1c2ccc(C3=CCOCC3)cc2[C@H](Nc2ncccn2)[C@@H](C)[C@@H]1C1CC1` (racemic) [Example 177, rac-1-((2S,3R,4R)-2-cyclopropyl-6-(3,6-dihydro-2H-pyran-4-yl)-3-methyl-4-(pyrimidin-2-ylamino)-3,4-dihydroquinolin-1(2H)-yl)ethanone, formic acid salt], the figure is 100 nM.

As to `CC(=O)N1c2ccc(C3=CCOCC3)cc2[C@H](Nc2ccc(C#N)cn2)[C@@H](C)[C@@H]1C1CC1` (racemic) [Example 181, rac-6-(((2S,3R,4R)-1-acetyl-2-cyclopropyyl-6-(3,6-dihydro-2H-pyran-4-yl)-3-methyl-1,2,3,4-tetrahydroquinolin-4-yl)amino)nicotinonitrile], the IC50 is 100 nM. To `CC(=O)N1c2ccc(C3CCNCC3)cc2[C@H](Nc2cnc(C)cn2)[C@@H](C)[C@@H]1C` (racemic) [Example 183, rac-1-((2S,3R,4R)-2,3-dimethyl-4-((5-methylpyrazin-2-yl)amino)-6-(piperidin-4-yl)-3,4-dihydroquinolin-1(2H)-yl)ethanone, hydrochloride] belongs 1000 to 100000 nM; to `CC(=O)N1c2ccc(C3CCNCC3)cc2[C@H](Nc2ccc(C#N)cn2)[C@@H](C)[C@@H]1C` (racemic) [Example 187, rac-6-(((2S,3R,4R)-1-acetyl-2,3-dimethyl-6-(piperidin-4-yl)-1,2,3,4-tetrahydroquinolin-4-yl)amino)nicotinonitrile], 1000 to 100000 nM. In the case of `CNC(=O)c1ccc(N[C@H]2c3cc(C4CCNCC4)ccc3N(C(C)=O)[C@@H](C)[C@@H]2C)cc1` (racemic) [Example 188, rac-4-(((2S,3R,4R)-1-acetyl-2,3-dimethyl-6-(piperidin-4-yl)-1,2,3,4-tetrahydroquinolin-4-yl)amino)-N-methylbenzamide], the IC50 is 1000 to 100000 nM.

Regarding `CC(=O)N1c2ccc(C3=CCNCC3)cc2[C@H](Nc2ccc(C#N)cc2)[C@@H](C)[C@@H]1C1CC1` (racemic) [Example 192, rac-4-(((2S,3R,4R)-1-acetyl-2-cyclopropyl-3-methyl-6-(1,2,3,6-tetrahydropyridin-4-yl)-1,2,3,4-tetrahydroquinolin-4-yl)amino)benzonitrile], the IC50 was 100 nM. As for `CC(=O)N1c2ccc(N3CCOCC3)cc2[C@H](Nc2cccc(O)n2)[C@@H](C)[C@@H]1C1CC1` (racemic) [Example 210, rac-1-((2S,3R,4R)-2-cyclopropyl-4-((6-hydroxypyridin-2-yl)amino)-3-methyl-6-morpholino-3,4-dihydroquinolin-1(2H)-yl)ethanone], the figure is 1000 to 100000 nM. To `CC(=O)N1c2ccc(N3CCOCC3)cc2[C@H](Nc2cnc(C)cn2)[C@@H](C)[C@@H]1C1CC1` (racemic) [Example 211, rac-1-((2S,3R,4R)-2-cyclopropyl-3-methyl-4-((5-methylpyrazin-2-yl)amino)-6-morpholino-3,4-dihydroquinolin-1(2H)-yl)ethanone] belongs 1000 to 100000 nM. As for `CC[C@H]1[C@H](C)[C@@H](Nc2cnc(C)cn2)c2cc(N3CCNCC3)ccc2N1C(C)=O` (racemic) [Example 218, rac-1-((2S,3R,4R)-2-ethyl-3-methyl-4-((5-methylpyrazin-2-yl)amino)-6-(piperazin-1-yl)-3,4-dihydroquinolin-1(2H)-yl)ethanone], the figure is 1000 to 100000 nM; as for `CC[C@H]1[C@H](C)[C@@H](Nc2ccc(C(=O)NC)cc2)c2cc(N3CCNCC3)ccc2N1C(C)=O` (racemic) [Example 220, rac-4-(((2S,3R,4R)-1-acetyl-2-ethyl-3-methyl-6-(piperazin-1-yl)-1,2,3,4-tetrahydroquinolin-4-yl)amino)-N-methylbenzamide], 1000 to 100000 nM. On to `CC[C@H]1[C@H](C)[C@@H](Nc2cnc(C#N)cn2)c2cc(N3CCNCC3)ccc2N1C(C)=O` (racemic) [Example 221, rac-5-(((2S,3R,4R)-1-acetyl-2-ethyl-3-methyl-6-(piperazin-1-yl)-1,2,3,4-tetrahydroquinolin-4-yl)amino)pyrazine-2-carbonitrile], for which the IC50 is 1000 to 100000 nM. As for `CC(=O)N1c2ccc(N3CCN[C@@H](C)C3)cc2[C@H](Nc2cnc(C)cn2)[C@@H](C)[C@@H]1C1CC1` (racemic) [Example 227, 1-((rac-2S,3R,4R)-2-cyclopropyl-3-methyl-6-((S)-3-methylpiperazin-1-yl)-4-((5-methylpyrazin-2-yl)amino)-3,4-dihydroquinolin-1(2H)-yl)ethanone], the figure is 1000 to 100000 nM; as for `CNC(=O)c1ccc(N[C@H]2c3cc(N4CCN[C@@H](C)C4)ccc3N(C(C)=O)[C@@H](C3CC3)[C@@H]2C)cc1` (racemic) [Example 228, 4-(((rac-2S,3R,4R)-1-acetyl-2-cyclopropyl-3-methyl-6-((S)-3-methylpiperazin-1-yl)-1,2,3,4-tetrahydroquinolin-4-yl)amino)-N-methylbenzamide], 1000 to 100000 nM. As for `CNC(=O)c1ccc2c(c1)[C@H](Nc1ccc(C#N)cn1)[C@@H](C)[C@H](C)N2C(C)=O` (racemic) [Example 230, rac-(2S,3R,4R)-1-acetyl-4-((5-cyanopyridin-2-yl)amino)-N,2,3-trimethyl-1,2,3,4-tetrahydroquinoline-6-carboxamide], the figure is 100 nM. To `CNC(=O)c1ccc2c(c1)[C@H](Nc1cccc(C)n1)[C@@H](C)[C@H](C)N2C(C)=O` (racemic) [Example 231, rac-(2S,3R,4R)-1-acetyl-N,2,3-trimethyl-4-((6-methylpyridin-2-yl)amino)-1,2,3,4-tetrahydroquinoline-6-carboxamide] belongs 100 nM. `CC[C@@H]1[C@@H](C)[C@H](Nc2cccc(C)n2)c2cc(C(=O)NC)ccc2N1C(C)=O` (racemic) [Example 235, rac-(2S,3R,4R)-1-acetyl-2-ethyl-N,3-dimethyl-4-((6-methylpyridin-2-yl)amino)-1,2,3,4-tetrahydroquinoline-6-carboxamide]: the IC50 is 100 nM. To `CC[C@H]1[C@H](C)[C@@H](Nc2ccc(C#N)cn2)c2cc(C(=O)NC)ccc2N1C(C)=O` (racemic) [Example 237, rac-(2S,3R,4R)-1-acetyl-4-((5-cyanopyridin-2-yl)amino)-2-ethyl-N,3-dimethyl-1,2,3,4-tetrahydroquinoline-6-carboxamide] belongs 100 nM; to `CNC(=O)c1ccc2c(c1)[C@H](Nc1nccc(C)n1)[C@@H](C)[C@H](C1CC1)N2C(C)=O` (racemic) [Example 240, rac-(2S,3R,4R)-1-acetyl-2-cyclopropyl-N,3-dimethyl-4-((4-methylpyrimidin-2-yl)amino)-1,2,3,4-tetrahydroquinoline-6-carboxamide], 100 nM. As for `CNC(=O)c1ccc2c(c1)[C@H](Nc1ccc(C#N)cc1)[C@@H](C)[C@H](C1CC1)N2C(C)=O` (racemic) [Example 243, rac-(2S,3R,4R)-1-acetyl-4-((4-cyanophenyl)amino)-2-cyclopropyl-N,3-dimethyl-1,2,3,4-tetrahydroquinoline-6-carboxamide], the figure is 100 nM.

The values above are taken from patent publication US11478478B2, “2,3-disubstituted 1-acyl-4-amino-1,2,3,4-tetrahydroquinoline derivatives and their use as bromodomain inhibitors” (GLAXOSMITHKLINE INTELLECTUAL PROPERTY (NO.2) LIMITED, priority 2013, dated 2022).
